According to patent US20230146507A1, “N-PHENYL-3-MERCAPTOPROPANAMIDE DERIVATIVES AS METALLO-BETA-LACTAMASE INHIBITORS FOR THE TREATMENT OF BACTERIAL INFECTIONS” (Helmholtz-Zentrum Für Infektionsforschung GmbH, priority 2020, published 2023):
In brackets after ≈: the same amount, converted by molar mass.

How the values were obtained:
E. coli NDM-7 (T2239) = experiment: MIC assay, clinical isolate; format: cell-based; conditions: E. coli NDM-7 (T2239)
VIM-1 = biological target: T1, VIM-1 (Pseudomonas aeruginosa, UniProt A0A0F7KYQ8); experiment: In vitro inhibition assay (kinetic fluorescence-based activity assay), VIM-1; format: biochemical; conditions: Means and SD of at least two independent experiments
T1 construct: made in house
Experimental: (§1) Protein expression and purification. The expression of IMP-7, VIM-1, and NDM-1 was performed according to the protocol previously published by Klingler et al. (Klingler, F. M.; Wichelhaus, T. A.; Frank, D.; Cuesta-Bernal, J.; El-Delik, J.; Müller, H. F.; Sjuts, H.; Gottig, S.; Koenigs, A.; Pos, K. M.; et al. Approved Drugs Containing Thiols as Inhibitors of Metallo-β-Lactamases: Strategy to Combat Multidrug-Resistant Bacteria. J. Med. Chem. 2015, 58 (8), 3626-3630. https://doi.org/10.1021/jm501844d) with slight modifications.
(§2) In vitro inhibition assay. Activity assays for NDM-1, VIM-1, VIM-2 and IMP-7 were carried out, as described by Klingler et al. Final protein concentrations were 0.5 nM (NDM-1), 4.0 nM (VIM-1), and 0.1 nM (IMP-7) in a 50 mM HEPES buffer (pH 7.5, 0.01% Triton X-100) Substrate (Fluorocillin™ (Invitrogen, Darmstadt, Germany) was dissolved in assay buffer to a final concentration of 888 nM. Test compounds were dissolved and pre-diluted in DMSO (final concentration: 1%). In a black polystyrol 96-well plate (Corning) an amount of […] of the respective inhibitor solution at different concentrations was incubated with […] of respective protein containing buffer for 30 minutes at room temperature. […] of substrate solution was added. The readout of the emitted fluorescence was started immediately (45 s for 30 cycles) using a Tecan Infinite F200Pro (Tecan Group Ltd; excitation at 495 nm and emission at 525 nm). Blank controls were performed without enzyme. Positive controls were performed with enzyme but without inhibitor. The inhibitory activity of each test compound was measured in three independent experiments. For calculation of IC50 values, data obtained from measurements with eight different inhibitor concentrations were used. For the evaluation of the sigmoidal dose response equation (variable slope with four parameters) GraphPad Prism 5 (GraphPad Software, La Jolla, Calif., USA) was used.

E. coli NDM-1 (T2359) = experiment: Checkerboard assay with imipenem, E. coli NDM-1 (T2359); format: cell-based; conditions: Table 6
Experimental: (§3) Fractional inhibitory concentration index (FICI). The checkerboard assay was performed to test for synergy in vitro. […] FICIs≤0.5 were defined as synergistic; FICIs from >0.5 to […] were defined as additive; FICIs from 1 to ≤4 were defined as indifferent and FICIs>4 were defined as antagonistic (Doern, C. D. When Does 2 plus 2 Equal 5? A Review of Antimicrobial Synergy Testing. J. Clin. Microbial. 2014, 52 (12), 4124-4128. https://doi.org/10.1128/JCM.01121-14).

[1] = system: K. pneumoniae NDM-1 (T2301); experiment: MIC assay, clinical isolate; format: cell-based
E. coli IMP-1 (T2360) = experiment: Checkerboard assay with imipenem, E. coli IMP-1 (T2360); format: cell-based
Experimental: as §3

NDM-1 = biological target: T2, NDM-1 (Klebsiella pneumoniae, UniProt C7C422); experiment: In vitro inhibition assay (kinetic fluorescence-based activity assay), NDM-1; format: biochemical; conditions: Means and SD of at least two independent experiments
T2 construct: made in house
Experimental: as §1, §2

IMP-7 = IMP-7 (Pseudomonas aeruginosa, UniProt Q93AU3); experiment: In vitro inhibition assay (kinetic fluorescence-based activity assay), IMP-7; format: biochemical; conditions: Means and SD of at least two independent experiments
Experimental: as §1, §2

[2] = system: A. baumannii OXA-23 (T2434); experiment: MIC assay, clinical isolate; format: cell-based; conditions: intrinsic antimicrobial activity
E. coli KPC-2 (T2435) = experiment: MIC assay, clinical isolate; format: cell-based; conditions: intrinsic antimicrobial activity
[3] = system: P. aeruginosa VIM-1 (T2357); experiment: MIC assay, clinical isolate; format: cell-based; conditions: intrinsic antimicrobial activity
E. cloacae NDM-1 (T2311) = experiment: MIC assay, clinical isolate; format: cell-based
E. cloacae GIM-1 (T2218) = experiment: MIC assay, clinical isolate; format: cell-based; conditions: intrinsic antimicrobial activity; E. cloacae GIM-1 (T2218)
[4] = system: P. aeruginosa IMP-1 (T2325); experiment: MIC assay, clinical isolate; format: cell-based; conditions: intrinsic antimicrobial activity; P. aeruginosa IMP-1 (T2325)
E. coli NDM-5 (T2351) = experiment: MIC assay, clinical isolate; format: cell-based
E. coli VIM-1 (T2544) = experiment: Checkerboard assay with imipenem, E. coli VIM-1 (T2544); format: cell-based
Experimental: as §3

E. cloacae VIM-1 (T2353) = experiment: MIC assay, clinical isolate; format: cell-based
[5] = system: different isolates from E. coli and P. aeruginosa; experiment: MIC assay, intrinsic antibacterial activity; format: cell-based; conditions: compound alone
[6] = system: S. marcescens NDM-1 (T2352); experiment: MIC assay, clinical isolate; format: cell-based; conditions: S. marcescens NDM-1 (T2352)
[7] = intrinsic antimicrobial activity

Chain of IMP-7 (Q93AU3 entry or part of it): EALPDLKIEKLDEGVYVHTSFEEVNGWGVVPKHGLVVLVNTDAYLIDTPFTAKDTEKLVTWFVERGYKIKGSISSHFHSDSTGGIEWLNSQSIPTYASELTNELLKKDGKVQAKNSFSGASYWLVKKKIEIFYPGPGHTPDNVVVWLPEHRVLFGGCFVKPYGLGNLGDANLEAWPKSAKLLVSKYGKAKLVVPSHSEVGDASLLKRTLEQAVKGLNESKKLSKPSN
T2 sequence (C7C422 29-270, looked up, species assumed): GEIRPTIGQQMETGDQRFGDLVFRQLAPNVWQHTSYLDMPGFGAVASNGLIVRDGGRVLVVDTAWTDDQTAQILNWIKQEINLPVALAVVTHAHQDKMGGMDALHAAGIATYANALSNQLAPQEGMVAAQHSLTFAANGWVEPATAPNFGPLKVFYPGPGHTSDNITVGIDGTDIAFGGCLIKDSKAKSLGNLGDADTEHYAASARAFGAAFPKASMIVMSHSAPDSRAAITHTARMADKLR

## O=C(CCS)Nc1cccc(C(=O)O)c1 [HIPS5694, 3-(3-mercaptopropanamido)benzoic acid]
E. coli NDM-7 (T2239); +HIPS 5694 128 mg/L
  MIC (mg/L) Imipenem (+HIPS 5694 128 mg/L): 2 mg/L (≈ 8.88 µM)
E. coli NDM-7 (T2239); [7]
  HIPS 5694 MIG: >256 mg/L
VIM-1
  IC50: 1.2 µM
E. coli NDM-1 (T2359); +2 mg/L compound
  Imipenem MIC: 128 µg/mL
E. coli NDM-1 (T2359); +4 mg/L compound
  Imipenem MIC: 128 µg/mL
E. coli NDM-1 (T2359); +8 mg/L compound
  Imipenem MIC: 64 µg/mL
E. coli NDM-1 (T2359); +16 mg/L compound
  Imipenem MIC: 64 µg/mL
E. coli NDM-1 (T2359); +32 mg/L compound
  Imipenem MIC: 8 µg/mL
E. coli NDM-1 (T2359); +64 mg/L compound
  Imipenem MIC: 2 µg/mL
E. coli NDM-1 (T2359); +128 mg/L compound
  Imipenem MIC: ≤0.5 µg/mL
[1]; +HIPS 5694 128 mg/L
  MIC (mg/L) Imipenem (+HIPS 5694 128 mg/L): 0.5 mg/L (≈ 2.22 µM)
[1]; [7]
  HIPS 5694 MIG: >256 mg/L
E. coli IMP-1 (T2360); +2 mg/L compound
  Imipenem MIC: 2 µg/mL
E. coli IMP-1 (T2360); +4 mg/L compound
  Imipenem MIC: 2 µg/mL
E. coli IMP-1 (T2360); +8 mg/L compound
  Imipenem MIC: 1 µg/mL
E. coli IMP-1 (T2360); +16 mg/L compound
  Imipenem MIC: 1 µg/mL
E. coli IMP-1 (T2360); +32 mg/L compound
  Imipenem MIC: 1 µg/mL
E. coli IMP-1 (T2360); +64 mg/L compound
  Imipenem MIC: 0.5 µg/mL
E. coli IMP-1 (T2360); +128 mg/L compound
  Imipenem MIC: 0.5 µg/mL
NDM-1
  IC50: 4 µM
IMP-7
  IC50: 6.4 ± 0.6 µM
[2]
  HIPS 5694 MIG: >256 mg/L
E. coli KPC-2 (T2435)
  HIPS 5694 MIG: >256 mg/L
[3]
  HIPS 5694 MIG: >256 mg/L
E. cloacae NDM-1 (T2311); +HIPS 5694 128 mg/L
  MIC (mg/L) Imipenem (+HIPS 5694 128 mg/L): 1 mg/L (≈ 4.44 µM)
E. cloacae NDM-1 (T2311); [7]
  HIPS 5694 MIG: >256 mg/L
E. cloacae GIM-1 (T2218)
  HIPS 5694 MIG: >256 mg/L
[4]
  HIPS 5694 MIG: >256 mg/L
E. coli NDM-5 (T2351); +HIPS 5694 128 mg/L
  MIC (mg/L) Imipenem (+HIPS 5694 128 mg/L): 2 mg/L (≈ 8.88 µM)
E. coli NDM-5 (T2351); [7]
  HIPS 5694 MIG: >256 mg/L
E. coli VIM-1 (T2544); +2 mg/L compound
  Imipenem MIC: 32 µg/mL
E. coli VIM-1 (T2544); +4 mg/L compound
  Imipenem MIC: 32 µg/mL
E. coli VIM-1 (T2544); +8 mg/L compound
  Imipenem MIC: 32 µg/mL
E. coli VIM-1 (T2544); +16 mg/L compound
  Imipenem MIC: 16 µg/mL
E. coli VIM-1 (T2544); +32 mg/L compound
  Imipenem MIC: 16 µg/mL
E. coli VIM-1 (T2544); +64 mg/L compound
  Imipenem MIC: 8 µg/mL
E. coli VIM-1 (T2544); +128 mg/L compound
  Imipenem MIC: 0.5 µg/mL
E. cloacae VIM-1 (T2353); +HIPS 5694 128 mg/L
  MIC (mg/L) Imipenem (+HIPS 5694 128 mg/L): 2 mg/L (≈ 8.88 µM)
E. cloacae VIM-1 (T2353); [7]
  HIPS 5694 MIG: >256 mg/L
[5]
  intrinsic antibacterial activity (MIC): no intrinsic antibacterial activity
[6]; +HIPS 5694 128 mg/L
  MIC (mg/L) Imipenem (+HIPS 5694 128 mg/L): 4 mg/L (≈ 17.8 µM)
[6]; [7]
  HIPS 5694 MIG: >256 mg/L
